Assay results published in the supplement of paper PMC10307832.

What was measured:
IU1-47 + Foretinib = compound: CC1=CC(=C(N1C2=CC=C(C=C2)Cl)C)C(=O)CN3CCCCC3 [IU1-47] + COc1cc2c(Oc3ccc(NC(=O)C4(C(=O)Nc5ccc(F)cc5)CC4)cc3F)ccnc2cc1OCCCN1CCOCC1 [Foretinib] (partner 0.25 µM); test: relative viability (nuclei count vs DMSO), 5 days (fraction); higher = more cells survive
Method in brief: (§1)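 Lung cancer cell lines in 1536-well plates got either a single drug or a fixed anchor-drug dose together with five library-drug doses (not always all listed) in √10 steps, by pin tool, on the day after seeding. Nuclei were counted after 5 days, and relative viability is the treated-to-vehicle ratio of nuclei counts. Values are medians of duplicate plates.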

FG-4592 + Tozasertib = compound: Cc1nc(C(=O)NCC(=O)O)c(O)c2ccc(Oc3ccccc3)cc12 [FG-4592] + Cc1cc(Nc2cc(N3CCN(C)CC3)nc(Sc3ccc(NC(=O)C4CC4)cc3)n2)n[nH]1 [Tozasertib] (partner 0.1 µM); test: as above
Method in brief: as §1

| Cell Line | relative viability (IU1-47 + Foretinib; first compound 0.08 µM) | relative viability (IU1-47 + Foretinib; first compound 0.253 µM) | relative viability (IU1-47 + Foretinib; first compound 0.8 µM) | relative viability (IU1-47 + Foretinib; first compound 8 µM) | relative viability (FG-4592 + Tozasertib; first compound 0.08 µM) | relative viability (FG-4592 + Tozasertib; first compound 0.253 µM) | relative viability (FG-4592 + Tozasertib; first compound 2.53 µM) | relative viability (FG-4592 + Tozasertib; first compound 8 µM) | relative viability (FG-4592 + Tozasertib; first compound 0.8 µM) | relative viability (IU1-47 + Foretinib; first compound 2.53 µM) |
| --- | --- | --- | --- | --- | --- | --- | --- | --- | --- | --- |
| NCI-H1793 | 0.75 | 0.764 | 0.765 | 0.688 | 0.435 | 0.388 | 0.362 | 0.317 | – | – |
| NCI-H2023 | 0.75 | 0.722 | 1 | 0.719 | 0.354 | 0.357 | 0.348 | 0.258 | 0.374 | – |
| COR-L 105 | 0.907 | 1.14 | 1.22 | 1.4 | 0.348 | 0.375 | 0.297 | 0.35 | 0.359 | 1.2 |
| RERF-LC-KJ | 0.877 | 0.918 | 0.922 | 0.893 | 0.485 | 0.448 | 0.543 | 0.463 | 0.578 | 0.868 |
| LXF-289 | 1.01 | 1.06 | 1.1 | 0.902 | 0.186 | 0.16 | 0.177 | 0.205 | 0.214 | 0.967 |
| PC-14 | 1.07 | 1.03 | 0.954 | 0.907 | 0.674 | 0.55 | 0.596 | 0.682 | 0.651 | 0.959 |
| NCI-H650 | 1.06 | 1.01 | 1.02 | 1.07 | 0.73 | 0.703 | 0.691 | 0.697 | 0.746 | 0.881 |
| NCI-H1666 | 1.04 | 0.928 | 0.893 | 0.896 | 0.651 | 0.592 | 0.657 | 0.56 | 0.594 | 0.948 |
| NCI-H2085 | 0.922 | 1.19 | 0.926 | 0.767 | 0.79 | 0.774 | 0.792 | 0.933 | 0.758 | 0.922 |
| NCI-H1734 | 0.89 | 0.888 | 0.844 | 0.765 | 0.284 | 0.267 | 0.252 | 0.217 | 0.256 | – |
| NCI-H2126 | 1.28 | 1.17 | 1.22 | 1.03 | 0.842 | 0.775 | 0.721 | 0.575 | 0.782 | 0.723 |
| EMC-BAC-2 | 1.07 | 1.11 | 0.984 | 1.05 | 0.262 | 0.277 | 0.301 | 0.286 | 0.27 | 1.02 |
| NCI-H1993 | 0.84 | 0.76 | 0.735 | 0.748 | 0.613 | 0.584 | 0.441 | 0.548 | 0.604 | 0.843 |
| NCI-H520 | 0.785 | 0.866 | 0.698 | 0.651 | – | 0.479 | 0.479 | 0.391 | – | 1.15 |
| NCI-H647 | 1.12 | 1.36 | – | 1.34 | 0.365 | 0.302 | 0.264 | 0.166 | 0.311 | 1.25 |
| SK-LU-1 | 0.855 | 0.752 | 0.879 | 0.868 | 0.317 | 0.331 | 0.31 | 0.273 | 0.295 | 0.852 |
| ChaGo-K-1 | 0.967 | 0.934 | 0.954 | 0.81 | 0.241 | 0.219 | 0.237 | 0.208 | 0.224 | 0.979 |
| NCI-H1650 | 1.05 | 1.17 | 1.1 | 0.886 | 0.409 | 0.277 | 0.456 | 0.406 | 0.427 | 1.4 |
| NCI-H2009 | 1.24 | 1.25 | 1.18 | 1.23 | 0.715 | 0.58 | 0.713 | 0.655 | 0.758 | 1.22 |
| LOU-NH91 | 0.988 | 1 | 0.903 | 0.966 | 0.709 | 0.669 | 0.634 | 0.717 | 0.696 | 0.891 |
| NCI-H2405 | 1.13 | 1.11 | 1 | 1.07 | 0.631 | – | 0.735 | 0.757 | 0.763 | 1.05 |
| LCLC-97TM1 | 0.957 | 1.02 | 0.892 | 0.856 | 0.173 | 0.214 | 0.244 | 0.18 | 0.23 | 0.725 |
| NCI-H596 | 0.893 | 0.82 | 0.806 | 0.761 | 0.975 | 0.916 | 0.893 | 0.682 | 0.867 | 0.87 |

| Cell Line | relative viability (IU1-47 + Foretinib; first compound 0.08 µM) | relative viability (IU1-47 + Foretinib; first compound 0.253 µM) | relative viability (IU1-47 + Foretinib; first compound 0.8 µM) | relative viability (IU1-47 + Foretinib; first compound 8 µM) | relative viability (FG-4592 + Tozasertib; first compound 0.08 µM) | relative viability (FG-4592 + Tozasertib; first compound 0.253 µM) | relative viability (FG-4592 + Tozasertib; first compound 2.53 µM) | relative viability (FG-4592 + Tozasertib; first compound 8 µM) | relative viability (FG-4592 + Tozasertib; first compound 0.8 µM) | relative viability (IU1-47 + Foretinib; first compound 2.53 µM) |
| --- | --- | --- | --- | --- | --- | --- | --- | --- | --- | --- |
| NCI-H727 | 1.05 | 0.988 | 0.871 | 0.987 | 0.608 | 0.591 | 0.807 | 0.678 | 0.757 | 1.02 |
| H3255 | 0.858 | 0.958 | 1.44 | 0.832 | 0.718 | 0.626 | 0.601 | 0.642 | 0.608 | 0.368 |
| SK-MES-1 | 0.999 | 1.05 | 0.838 | 0.921 | 0.862 | 0.872 | 0.862 | 0.832 | 0.961 | 0.844 |
| NCI-H1437 | 1.31 | 1.29 | 1.28 | 1.2 | 0.397 | 0.384 | 0.375 | 0.33 | 0.458 | 1.22 |
| NCI-H2342 | 1.24 | 1.06 | 0.935 | 1.03 | 0.493 | 0.43 | 0.464 | 0.421 | 0.442 | 1.07 |
| LU99A | 0.768 | 0.759 | 0.859 | 0.702 | 0.289 | 0.293 | 0.334 | 0.297 | 0.243 | 0.932 |
| SW 900 | 1.24 | 0.849 | 0.852 | 0.734 | 0.575 | 0.675 | 0.417 | 0.531 | 0.527 | 1.18 |
| HCC-827 | 1.15 | 1.12 | 0.998 | 1.01 | 0.385 | 0.372 | 0.457 | 0.406 | 0.369 | 1.02 |
| LK-2 | 1.8 | 1.82 | 1.78 | 0.943 | 0.155 | 0.17 | 0.175 | 0.186 | – | 0.89 |
| HCC-366 | 0.872 | 0.92 | 1 | 1.01 | 0.226 | 0.0945 | 0.0834 | 0.0885 | 0.123 | 0.966 |
| BEN | 0.618 | 0.676 | 0.646 | 0.61 | 0.564 | 0.459 | 0.676 | 0.452 | 0.475 | – |
| NCI-H23 | 0.91 | 1.14 | 1.04 | 1.03 | 0.412 | 0.4 | 0.346 | 0.431 | 0.418 | 1.17 |
| NCI-H1395 | 0.944 | 0.895 | 1.12 | 1 | 0.775 | 0.728 | 0.75 | 0.791 | 0.702 | 0.939 |
| 201T | 1.31 | 1.22 | 1.26 | 1.09 | 0.856 | 0.965 | 0.998 | 0.946 | 1.06 | 1.05 |
| NCI-H2170 | 1.14 | 1.08 | 1.03 | 1.24 | 0.704 | 0.622 | 0.777 | 0.704 | 0.726 | 0.994 |
| NCI-H460 | 1.09 | 1.04 | 1.26 | 1.15 | 0.381 | 0.419 | 0.592 | 0.487 | 0.42 | 0.86 |
| NCI-H661 | 1.14 | 1.16 | 1.07 | 1.2 | 0.365 | 0.371 | 0.359 | 0.343 | 0.347 | 0.93 |
| HCC-15 | 1.07 | 1.11 | 1.15 | 1.05 | 0.333 | 0.42 | 0.391 | 0.444 | 0.395 | 1.01 |
| ABC-1 | 1.1 | 0.985 | 1.06 | 1.07 | 0.177 | 0.178 | 0.187 | 0.149 | 0.148 | – |
| LCLC-103H | 0.786 | 0.864 | 0.846 | 0.865 | 0.42 | 0.529 | 0.557 | 0.411 | 0.572 | 0.73 |
| NCI-H441 | 0.873 | 1.15 | 0.986 | 0.864 | 0.679 | 0.521 | 0.619 | 0.688 | 0.712 | 1.13 |
| EPLC-272H | 0.659 | 0.775 | 0.764 | 0.606 | 0.24 | 0.286 | 0.378 | 0.271 | 0.204 | – |
